Source: patent publication US9644039B2, “Acid-degradable and bioerodible modified polyhydroxylated materials” (The Regents of the University of California, priority 2008, dated 2017)

Tests used:
[1] = tested on: RAW macrophages; assay: B3Z / LacZ MHC Class I antigen presentation assay; assay type: cell-based; conditions: APCs incubated with free or encapsulated ovalbumin
Method: The LacZ MHC Class I antigen presentation assay, as described by Sanderson, S.; Shastri, N. in Inter. Immun. 1994, 6, 369-376, is performed with degradable polymer particles made according to Example 3 with the modified hydroxylated polymers of Example 2 to test their ability to deliver proteins into APCs for Class I antigen presentation. This experiment uses the LacZ B3Z hybridoma, which is a CTL that recognizes the peptide sequence, […] (SEQ ID NO: 8), from ovalbumin, complexed with the MHC Class I molecule H-2K^b. This hybridoma produces β-galactosidase after encountering APCs that present […] as a Class I antigen, thus allowing Class I antigen presentation to be quantified by measuring β-galactosidase activity.
In order to assess the feasibility of using Ac-DEX based materials for vaccine applications, OVA-loaded Ac-DEX particles were incubated with RAW macrophages. […] 1×10^4 RAW macrophages were seeded overnight in a 96 well plate and subsequently incubated with OVA-containing Ac-DEX particles or free OVA. […] After six hours of incubation, Ac-DEX particles increased MHC class I presentation of the OVA-derived CD8^+ T-cell epitope, […], by a factor of 16 relative to free OVA (FIG. 15) measured by the B3Z assay (Karttunen, J.; Shastri, N., Proc. Natl. Acad. Sci. U.S.A. 1991, 88, 3972-6).

[2] = tested on: MO5 tumor cells; assay: Tumor prophylactic vaccination, MO5 tumor challenge; assay type: in vivo, Mice; conditions: immunized subcutaneously day 0, 200,000 MO5 tumor cells day 7
Method: In one embodiment, Ac-DEX particles will encapsulate OVA similar to (Example 9 with B3Z assay) and be used in a tumor prophylactic and treatment vaccination against cancer. MO5 is a B16 tumor cell line that expresses OVA (Falo et al. 1995, Targeting antigen into the phagocytic pathway in vivo induces protective tumour immunity. Nat Med 1:649-53). Mice are immunized subcutaneously with 2 mg of Ac-DEX particles with a 2.5 wt % loading of OVA (50 μg of OVA) in the left flank on day 0. Other groups include mice which are injected with either OVA, saline, or Ac-DEX particles encapsulating OVA and an immunostimulatory CpG stimulant. We have shown earlier that adding CpG with acid labile particles drastically increases the efficacy of treatment(Standley et al. 2007, Incorporation of CpG oligonucleotide ligand into protein-loaded particle vaccines promotes antigen-specific CD8 T-cell immunity. Bioconjug Chem 18:77-83). CpG can be either co-injected with the particles, or it can be encapsulated inside the particles. […]
After injection, the tumor growth is monitored by measuring two perpendicular axes using calipers. Tumor volume is then calculated using the equation, volume=[…], with the length being the longest diameter and the width being the shortest diameter of the two perpendicular measurements. […]

[3] = tested on: B16 tumor; assay: Chemotherapy of subcutaneous B16 tumor with DOX particles; assay type: in vivo, mice; conditions: injected after 3 days
Method: To determine the maximum in vivo tolerated dose for the particles, a varying concentration of doses of 0 (PBS), 20, 40, and 60 mg/kg DOX equivalents are injected intravenously. The weights and general health of the mice are monitored until the ninth day after injection. Based on weight loss, the maximum injection of particles tolerated in mice is calculated. Once determined, mice are implanted subcutaneously with a B16 tumor. After 3 days mice are injected with PBS, free DOX, Ac-DEX particles encapsulating DOX, pegylated-Ac-DEX particles, or Doxcil (a commercially available doxorubicin/liposome conjugate). Mice are monitored for tumor growth. Once the tumor reaches an average diameter of 1.5 cm, the mice are sacrificed.

| Compound | activation of CTLs (Class I antigen presentation) [1] | tumor onset, tumor growth and survival time [2] | tumor growth (order of groups) [3] |
| --- | --- | --- | --- |
| free ovalbumin: ovalbumin, model protein antigen, not encapsulated | not able to activate CTLs | fastest tumor onset and tumor growth |  |
| COc1cccc2c1C(=O)c1c(O)c3c(c(O)c1C2=O)C[C@@](O)(C(=O)CO)C[C@@H]3O[C@H]1C[C@H](N)[C@H](O)[C@H](C)O1 [free Dox, doxorubicin] |  |  | fastest tumor growth followed by, free Dox, Ac-DEX particles, Doxcil and finally PEGylated Ac-DEX particles |
